Test results published in ChEMBL document CHEMBL1201862, “PubChem BioAssay data set” (2004).
Calls of active or inactive are those of the source.

Key:
[1] = biological target: DNA dC->dU-editing enzyme APOBEC-3G (Homo sapiens, UniProt Q9HC16); assay type: functional;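 further: Dose-response counterscreen measuring inhibition of APOBEC3G DNA deaminase activity, run while confirming APOBEC3A inhibitors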
[2] = biological target: DNA dC->dU-editing enzyme APOBEC-3A (Homo sapiens, UniProt P31941); assay: Dose Response confirmation of small molecule APOBEC3A DNA Deaminase Inhibitors via a fluorescence-based single-stranded DNA deaminase assay. [Related pubchem assays (depositor defined):AID493011, AID493024]; assay type: functional
Sequence of DNA dC->dU-editing enzyme APOBEC-3A (P31941 whole entry): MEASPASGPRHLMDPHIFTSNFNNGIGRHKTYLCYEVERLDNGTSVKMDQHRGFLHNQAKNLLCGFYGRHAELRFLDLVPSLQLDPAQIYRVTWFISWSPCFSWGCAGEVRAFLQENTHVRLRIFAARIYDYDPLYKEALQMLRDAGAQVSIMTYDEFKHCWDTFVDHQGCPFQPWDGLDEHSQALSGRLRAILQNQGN

[3] = biological target: T1, Short transient receptor potential channel 4 (Mus musculus, UniProt Q9QUQ5); assay: block of DAMGO-driven TRPC4 calcium entry – cell-based, HEK293 TRPC4/mu-opioid, Fluo-4 calcium, dose response (AID 434942); assay type: functional;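 further: potency of inhibitors blocking the TRPC4 calcium response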
T1 sequence (Q9QUQ5 whole entry): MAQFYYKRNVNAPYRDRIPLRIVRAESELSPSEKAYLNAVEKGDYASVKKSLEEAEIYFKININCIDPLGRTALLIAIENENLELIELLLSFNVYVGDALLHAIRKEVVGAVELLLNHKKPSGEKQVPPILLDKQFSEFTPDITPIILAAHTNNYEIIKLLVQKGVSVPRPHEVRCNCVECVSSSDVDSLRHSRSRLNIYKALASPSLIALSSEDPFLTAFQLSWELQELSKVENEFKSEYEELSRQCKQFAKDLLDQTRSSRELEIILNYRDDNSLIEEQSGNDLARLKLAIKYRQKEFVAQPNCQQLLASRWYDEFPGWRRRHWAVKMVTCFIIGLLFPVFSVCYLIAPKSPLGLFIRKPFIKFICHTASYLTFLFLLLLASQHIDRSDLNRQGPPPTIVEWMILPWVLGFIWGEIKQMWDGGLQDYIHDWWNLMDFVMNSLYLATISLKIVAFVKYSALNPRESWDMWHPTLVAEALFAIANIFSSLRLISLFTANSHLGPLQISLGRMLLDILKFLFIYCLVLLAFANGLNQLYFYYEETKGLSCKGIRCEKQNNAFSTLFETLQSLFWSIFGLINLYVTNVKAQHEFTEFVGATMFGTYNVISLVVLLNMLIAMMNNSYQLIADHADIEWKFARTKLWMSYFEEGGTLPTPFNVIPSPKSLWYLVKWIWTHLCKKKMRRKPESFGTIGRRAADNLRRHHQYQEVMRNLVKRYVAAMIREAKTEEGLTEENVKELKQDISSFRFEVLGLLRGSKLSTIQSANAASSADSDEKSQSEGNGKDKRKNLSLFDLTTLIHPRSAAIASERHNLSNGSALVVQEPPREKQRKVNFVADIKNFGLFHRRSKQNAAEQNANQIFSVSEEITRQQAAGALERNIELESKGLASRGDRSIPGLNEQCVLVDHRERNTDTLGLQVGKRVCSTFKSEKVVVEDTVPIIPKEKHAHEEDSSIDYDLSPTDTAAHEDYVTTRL

Cytochrome P450 2C9 = Cytochrome P450 2C9 (Homo sapiens, UniProt P11712)
Sequence of Cytochrome P450 2C9 (P11712 whole entry): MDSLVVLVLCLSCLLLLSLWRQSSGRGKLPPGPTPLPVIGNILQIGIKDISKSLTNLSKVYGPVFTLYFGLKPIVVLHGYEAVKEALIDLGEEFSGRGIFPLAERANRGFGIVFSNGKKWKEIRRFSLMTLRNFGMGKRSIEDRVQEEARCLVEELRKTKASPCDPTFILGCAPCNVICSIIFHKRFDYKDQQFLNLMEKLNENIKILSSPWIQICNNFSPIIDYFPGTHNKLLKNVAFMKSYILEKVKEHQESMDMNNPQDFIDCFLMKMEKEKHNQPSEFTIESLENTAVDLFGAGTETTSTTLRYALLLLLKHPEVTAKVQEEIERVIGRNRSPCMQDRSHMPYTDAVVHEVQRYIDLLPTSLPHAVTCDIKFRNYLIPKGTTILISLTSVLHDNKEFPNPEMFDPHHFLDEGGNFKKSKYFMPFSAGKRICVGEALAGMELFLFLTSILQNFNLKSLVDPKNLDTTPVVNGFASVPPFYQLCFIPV

[4] = HEK-293T viability loss after treatment – luminescence, T-cell screen hits, cytotoxicity control for TCR NF-kB inhibitor project, dose response (AID 489026); assay type: functional, cell-based;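 further: cells exposed to compound about 14 hours before the viability readout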
[5] = Trypanosoma cruzi growth suppression in host cells – NIH3T3 host cells, beta-gal luminescence, confirmation (AID 2044); assay type: functional, cell-based;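 further: intracellular parasites grown in NIH/3T3 mouse fibroblasts as host cells; luminescent beta-galactosidase reporter signal from transgenic T. cruzi replicating inside host cells; inhibitors lower the luminescence signal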
[6] = Luminescence Cell-Based Dose Retest to Confirm Inhibitors of Cancer Stem Cells. [Related pubchem assays (depositor defined):AID2717, AID2721]; assay type: functional; conditions: Homo sapiens
[7] = NIH3T3 cell viability loss – ATP luminescence, mouse fibroblasts, counter-screen, dose response (AID 2010); assay type: functional, cell-based;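 further: cells exposed to compound for about 90 hours before reading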
Nonstructural protein 1 = Nonstructural protein 1 (Influenza A virus, UniProt Q194T2); assay type: functional, Influenza A virus (A/California/07/2009(H1N1))
Sequence of Nonstructural protein 1 (Q194T2 whole entry): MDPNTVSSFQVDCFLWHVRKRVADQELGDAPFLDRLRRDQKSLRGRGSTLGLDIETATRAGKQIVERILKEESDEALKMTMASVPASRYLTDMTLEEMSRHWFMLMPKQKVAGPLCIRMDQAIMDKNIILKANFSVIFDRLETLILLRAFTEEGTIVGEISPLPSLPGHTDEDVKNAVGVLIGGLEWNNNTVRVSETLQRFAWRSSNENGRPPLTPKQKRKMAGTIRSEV

[8] = biological target: Dual specificity tyrosine-phosphorylation-regulated kinase 1A (Rattus norvegicus, UniProt Q63470); assay type: biochemical, Homo sapiens
[9] = biological target: T2, Carboxy-terminal domain RNA polymerase II polypeptide A small phosphatase 1 (Homo sapiens, UniProt Q9GZU7); assay: CTDSP1 inhibitors, concentration-response, biochemical, absorbance readout, ultra-high-throughput screen actives (AID 540297); assay type: functional
T2 sequence (Q9GZU7 whole entry): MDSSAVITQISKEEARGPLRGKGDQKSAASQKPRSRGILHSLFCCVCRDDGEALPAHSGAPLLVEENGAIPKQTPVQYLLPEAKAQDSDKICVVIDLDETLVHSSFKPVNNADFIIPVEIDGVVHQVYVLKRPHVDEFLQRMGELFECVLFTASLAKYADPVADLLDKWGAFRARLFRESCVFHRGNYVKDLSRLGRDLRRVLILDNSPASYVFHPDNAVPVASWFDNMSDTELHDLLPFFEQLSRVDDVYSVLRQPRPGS

Protein skinhead-1 = biological target: T3, Protein skinhead-1 (Caenorhabditis elegans, UniProt P34707); assay type: functional
T3 sequence (P34707 whole entry): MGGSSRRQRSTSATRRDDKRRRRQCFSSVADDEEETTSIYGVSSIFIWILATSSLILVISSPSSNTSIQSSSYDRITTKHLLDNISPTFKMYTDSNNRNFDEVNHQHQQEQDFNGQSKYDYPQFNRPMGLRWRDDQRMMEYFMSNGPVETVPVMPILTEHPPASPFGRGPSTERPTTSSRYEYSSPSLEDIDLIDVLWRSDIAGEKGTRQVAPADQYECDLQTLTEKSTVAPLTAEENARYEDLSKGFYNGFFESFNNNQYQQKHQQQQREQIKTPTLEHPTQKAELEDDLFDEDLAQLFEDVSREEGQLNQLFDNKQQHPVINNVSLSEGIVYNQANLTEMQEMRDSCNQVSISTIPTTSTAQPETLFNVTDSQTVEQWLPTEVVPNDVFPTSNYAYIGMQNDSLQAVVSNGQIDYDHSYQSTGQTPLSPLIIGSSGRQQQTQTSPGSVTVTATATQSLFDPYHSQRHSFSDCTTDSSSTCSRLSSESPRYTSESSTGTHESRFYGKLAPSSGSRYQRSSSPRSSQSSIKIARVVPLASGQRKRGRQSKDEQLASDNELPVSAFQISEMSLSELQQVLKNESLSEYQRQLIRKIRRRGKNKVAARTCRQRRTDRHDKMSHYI

[10] = non-specific 3'UTR reporter inhibition in Clone20-Shn3RL – cell-based, Renilla luciferase, cherry-picked, counter-screen for Shn3 inhibitor project, dose response (AID 624133); assay type: functional
[11] = reduction of Shn3 3'UTR-driven luciferase in osteoblasts – cell-based, Clone20 osteoblasts, firefly luciferase, cherry-picked, dose response (AID 624132); assay type: functional;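 further: firefly luciferase luminescence from reporter carrying the Shn3 3'UTR in osteoblasts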
[12] = biological target: Heat shock protein HSP 90-alpha (Homo sapiens, UniProt P07900); assay type: functional, organism-based
[13] = NIH-3T3 fibroblast cytotoxicity, dose response, cytotoxicity control, cell-based, fluorescence, Alamar Blue, secondary assay (AID 2327); assay type: functional;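 further: NIH-3T3 mouse fibroblasts cultured with fluconazole at 8 µg/mL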
[14] = fluconazole-exposed Candida albicans growth modulators – fluorescence, retest, confirmation (AID 2467); assay type: functional, cell-based
[15] = biological target: T4, Microphthalmia-associated transcription factor (Homo sapiens, UniProt O75030); assay: reducers of TRPM1 reporter luminescence, concentration series – cell-based, SK-MEL-5, cherry-picked, set 3, MITF inhibitor project, dose response (AID 493073); assay type: functional;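 further: SK-MEL-5 melanoma cells with luciferase driven by the MITF target TRPM1 promoter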
T4 sequence (O75030 whole entry): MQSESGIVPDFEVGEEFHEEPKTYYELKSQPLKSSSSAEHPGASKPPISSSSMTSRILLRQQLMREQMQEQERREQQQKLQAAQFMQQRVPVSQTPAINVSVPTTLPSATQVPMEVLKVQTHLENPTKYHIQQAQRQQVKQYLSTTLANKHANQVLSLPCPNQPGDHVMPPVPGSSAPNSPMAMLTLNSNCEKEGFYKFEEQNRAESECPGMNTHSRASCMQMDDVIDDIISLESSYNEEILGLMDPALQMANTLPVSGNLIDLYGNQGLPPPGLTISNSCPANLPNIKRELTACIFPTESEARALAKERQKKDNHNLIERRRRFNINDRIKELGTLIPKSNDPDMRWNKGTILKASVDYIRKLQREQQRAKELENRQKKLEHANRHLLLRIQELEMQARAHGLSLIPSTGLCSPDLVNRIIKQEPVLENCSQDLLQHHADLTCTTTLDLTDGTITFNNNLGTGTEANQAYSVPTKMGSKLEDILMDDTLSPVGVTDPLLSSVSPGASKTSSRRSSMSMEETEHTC

INS1 = assay: INS-1E survival protection against cytokine death – cell-based, luminescence, retest, dose response (AID 449756); assay type: functional; conditions: Rattus norvegicus;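 further: cell death triggered by IL-1 beta plus TNF-alpha plus IFN-gamma mixture; protective hits raise ATP signal compared with cytokine alone wells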
[16] = Vero E6 cell cytotoxicity, dose response, cytotoxicity control for non-replicating M. tuberculosis project, secondary assay (AID 492998); assay type: functional, VeroE6; conditions: Vero C1008
cells [17] = assay type: functional
[18] = THP-1 cell cytotoxicity, dose response, cytotoxicity control for non-replicating M. tuberculosis project (AID 489025); assay type: functional
cells [19] = assay type: functional, cell-based

Sequence of DNA dC->dU-editing enzyme APOBEC-3G (Q9HC16 whole entry): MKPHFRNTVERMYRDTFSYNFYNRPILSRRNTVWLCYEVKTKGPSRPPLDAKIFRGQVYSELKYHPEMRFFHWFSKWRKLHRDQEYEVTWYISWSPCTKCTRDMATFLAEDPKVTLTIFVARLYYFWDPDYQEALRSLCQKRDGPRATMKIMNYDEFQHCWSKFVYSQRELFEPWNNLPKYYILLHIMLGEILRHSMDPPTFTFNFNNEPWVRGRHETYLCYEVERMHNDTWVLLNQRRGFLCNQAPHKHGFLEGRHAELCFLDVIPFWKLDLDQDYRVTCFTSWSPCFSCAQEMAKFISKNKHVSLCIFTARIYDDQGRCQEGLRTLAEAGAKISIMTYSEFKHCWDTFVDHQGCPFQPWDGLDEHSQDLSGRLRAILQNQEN

CCSCc1nnc(SCC(=O)Nc2ccc(OC)cc2)n1C
IC50 [1]: 4.91 µM (active)
IC50 [2]: 3.08 µM (active)

COc1ccc(CN2CCN(Cc3ccc(C(F)(F)F)cc3)CC2)c(OC)c1
EC50 [3]: 2.66 µM (active)

Cc1cc2c(cc1S(N)(=O)=O)S(=O)(=O)CCC2
AC50 (Cytochrome P450 2C9): inconclusive

COc1cc(Nc2ccc(C)cc2)c([N+](=O)[O-])nc1[N+](=O)[O-]
IC50 [4]: > 80 µM (inactive)
EC50 [5]: 3.02 µM (active)
AC50 [6]: 3.51 µM (active)
EC50 [7]: > 60 µM (not active)

O=C(NCCN1CCOCC1)c1cc2sccc2n1Cc1ccc(Cl)cc1
IC50 (Nonstructural protein 1): > 100 µM (active)

CC(=O)N(C[C@@H](C)C(=O)O)c1c(I)cc(I)c(N)c1I
AC50 (Cytochrome P450 2C9): inconclusive

CCN1CCN(c2ccc(S(=O)(=O)N3CCCCC3)cc2NC(=O)/C=C/c2ccc(F)cc2)CC1
IC50 [1]: 7.23 µM (active)
IC50 [2]: 4.6 µM (active)

COc1ccc(N(C(=O)c2ccccc2C)S(=O)(=O)c2cccs2)cc1
IC50 [4]: > 80 µM (inactive)
AC50 [6]: 0.17 µM (active)

CCC1CCCCN1Cc1nc2c(c(=O)n(C)c(=O)n2C)n1Cc1ccccc1 (stereo not given)
EC50 [3]: 3.76 µM (active)

O=C(Nc1cccc2nsnc12)c1ccc2c(c1)OCO2
AC50 [8]: 11.7 µM (active)

CCOc1cc(/C=C2\SC(N3CCCCC3)=NC2=O)ccc1O
AC50 [8]: 0.678 µM (active)

CCc1noc(C)c1C(=O)NNC(=O)c1cc(OC)c(OC)c(OC)c1
IC50 [1]: 13.9 µM (active)
IC50 [2]: 21.3 µM (active)

CC(=O)Nc1cccc(-c2cnc3ccccc3n2)c1
AC50 [8]: 6.1 µM (active)

O=C(Nc1ccc(Br)cc1Cl)c1cnccn1
IC50 [9]: 4.67 µM (active)
IC50 (Protein skinhead-1): > 100 µM (inactive)

N=C(Nc1nc(-c2ccccn2)cc2ccccc12)c1ccccn1
AC50 [10]: < 260 nM (active)
AC50 [11]: < 260 nM (active)
AC50 [12]: 2.76 µM (active)
IC50 (Nonstructural protein 1): 39.6 µM (active)

CCCOCc1ccc(O)c2ncccc12
EC50 [13]: 16.2 µM (inconclusive)
EC50 [14]: 2.75 µM (active)
AC50 [15]: 15.5 µM (active)
EC50 [5]: 2.5 µM (active)
AC50 (INS1): 3.29 µM (active)
EC50 [7]: 8.03 µM (active)

CN(C)CCCN(Cc1cc2cc3c(cc2nc1O)OCO3)C(S)=NCc1ccco1
EC50 [3]: 0.421 µM (active)

CCOc1ccc(NC(=O)c2oc3ccccc3c2NC(=O)CC)cc1
AC50 (Cytochrome P450 2C9): inconclusive

O=C(NCCc1ccccc1)c1cc2ncc(Br)cn2n1
IC50 [1]: > 100 µM (inactive)
IC50 [2]: 12.8 µM (active)

Cc1nc([N+](=O)[O-])c(Br)n1CC(=O)c1ccc(Cl)cc1
CC50 [16]: 13 µM (active)
IC50 (cells [17]): 6.88 µM (active)
CC50 [18]: 17.4 µM (active)

CCCCN(C(=O)Cn1ncc(Cl)c(Cl)c1=O)c1c(N)n(CC(C)C)c(=O)[nH]c1=O
IC50 [9]: 5.74 µM (active)

Oc1ccc2ccc3[nH]cnc3c2c1
AC50 [8]: 2.47 µM (active)

C[C@@H](Cc1cccc(C(F)(F)F)c1)NCCOC(=O)c1ccccc1
AC50 (Cytochrome P450 2C9): inconclusive

O=c1oc2cc([N+](=O)[O-])ccc2nc1/C=C(\O)c1cccc(Br)c1
EC50 (cells [19]): > 350 µM (not active)

COc1ccccc1N(C(=O)c1snc(C(N)=O)c1N)C(C(=O)NC1CCCC1)c1ccc2ncccc2c1 (stereo not given)
EC50 [3]: 2.66 µM (active)

CC(=O)OC1C2CCC1C([N+]1(C)CCCCC1)CC2 (stereo not given)
IC50 [9]: 4.51 µM (active)
IC50 [1]: 3.15 µM (active)
IC50 [2]: 2.69 µM (active)

CCN(CC)CC(=O)Nc1ccc(Cl)cc1C(=O)c1ccccc1
EC50 [3]: 2.37 µM (active)

Cc1c(N/N=C2/C(=O)NC(=O)N(Cc3ccccc3)C2=O)c(=O)n(-c2ccccc2)n1C
IC50 (Nonstructural protein 1): 3.31 µM (active)

O=C(N/N=C/c1cc([N+](=O)[O-])ccc1O)C1CCCCC1
CC50 [16]: > 20 µM (active)
IC50 (cells [17]): 17.9 µM (active)
CC50 [18]: 21.4 µM (active)

O=[N+]([O-])c1ccccc1/C=C/C=N/Nc1nc(N2CCCCC2)nc(N2CCCCC2)n1
IC50 [1]: 0.814 µM (active)
IC50 [2]: 1.14 µM (active)

Cc1ccc(-c2cc(C(=O)N/N=C/c3ccc(Cl)cc3)[nH]n2)o1
IC50 [9]: 9.23 µM (active)
